Measured values: patent publication US20240270762A1, “PENICILLIN-BINDING PROTEIN INHIBITORS” (priority 2021, published 2024)
Values after ≈ are worked out from the molar mass of the structure shown. Where two headings read alike, the source gives them in different places.

Experiments:
[1] = test system: N. gonorrhoeae ATCC 49226; assay: Liquid broth MIC in Fastidious broth; conditions: Neisseria gonorrhoeae
A. baumannii ATCC 17978 = assay: microbe, parasite or virus in culture; type: cell-based; conditions: Acinetobacter baumannii, ATCC17978, read-out: MIC, A. baumannii ATCC 17978
[2] = target: T1, PBP3 from Escherichia coli (K-12) (Escherichia coli, UniProt P0AD68); assay: Bocillin-FL fluorescence polarization competition binding, E. coli PBP3
T1 construct: made in house
T1 sequence (P0AD68 1-577): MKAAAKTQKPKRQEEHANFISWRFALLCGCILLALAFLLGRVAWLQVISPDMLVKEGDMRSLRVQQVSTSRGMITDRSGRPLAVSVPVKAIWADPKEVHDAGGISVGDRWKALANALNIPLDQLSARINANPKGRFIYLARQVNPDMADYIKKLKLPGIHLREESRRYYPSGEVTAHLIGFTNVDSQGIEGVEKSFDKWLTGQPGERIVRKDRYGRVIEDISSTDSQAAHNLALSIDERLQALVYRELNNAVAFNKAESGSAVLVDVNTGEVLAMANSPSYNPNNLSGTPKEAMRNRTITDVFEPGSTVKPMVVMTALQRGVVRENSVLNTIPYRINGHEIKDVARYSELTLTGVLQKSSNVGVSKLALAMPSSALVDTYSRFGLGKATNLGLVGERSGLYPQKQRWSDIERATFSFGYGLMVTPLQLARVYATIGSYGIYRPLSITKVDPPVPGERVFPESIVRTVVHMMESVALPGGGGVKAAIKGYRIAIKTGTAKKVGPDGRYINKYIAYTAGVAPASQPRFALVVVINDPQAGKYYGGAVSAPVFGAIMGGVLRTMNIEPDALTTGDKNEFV
Summary of the method: (§1)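 Purified PBP was preincubated with inhibitor (E. coli PBP3 1.5 μM, 30 min; P. aeruginosa PBP3 0.75 μM, A. baumannii PBP3 0.2 μM and PBP1a 1 μM, 15 min), then Bocillin-FL (0.1 μM; 0.05 μM for PBP1a) added and FP read up to 60 min. EC50 = 50% loss of bound probe.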

[3] = target: T2, PBP3 from Pseudomonas aeruginosa (PAO1) (Pseudomonas aeruginosa, UniProt G3XD46); assay: Bocillin-FL fluorescence polarization competition binding, P. aeruginosa PBP3; conditions: Binding affinity to P. aeruginosa PBP3; fluorescence polarization competition binding assay using Bocillin-FL; read-out: P. aeruginosa PBP3 Potency
T2 construct: made in house
T2 sequence (G3XD46 whole entry): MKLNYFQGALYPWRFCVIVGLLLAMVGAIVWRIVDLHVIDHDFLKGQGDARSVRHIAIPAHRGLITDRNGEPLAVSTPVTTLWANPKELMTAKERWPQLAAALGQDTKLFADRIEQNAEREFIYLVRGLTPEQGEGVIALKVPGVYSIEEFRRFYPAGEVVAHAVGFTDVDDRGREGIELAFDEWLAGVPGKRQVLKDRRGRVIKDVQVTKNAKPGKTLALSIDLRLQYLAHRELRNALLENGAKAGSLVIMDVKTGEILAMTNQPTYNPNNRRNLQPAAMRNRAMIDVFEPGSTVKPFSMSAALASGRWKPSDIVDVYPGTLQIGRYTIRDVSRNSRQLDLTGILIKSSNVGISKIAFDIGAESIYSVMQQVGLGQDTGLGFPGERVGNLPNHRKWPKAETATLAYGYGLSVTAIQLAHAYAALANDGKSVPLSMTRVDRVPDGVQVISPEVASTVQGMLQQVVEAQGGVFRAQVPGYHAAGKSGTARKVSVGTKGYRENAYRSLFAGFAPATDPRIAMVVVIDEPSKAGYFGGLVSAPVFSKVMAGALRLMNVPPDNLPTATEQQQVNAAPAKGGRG
Summary of the method: as §1

N. gonorrhoeae WHO L = assay: Liquid broth MIC in Fastidious broth; conditions: Neisseria gonorrhoeae
A. baumannii CDC-0033 = assay: microbe, parasite or virus in culture; type: cell-based; conditions: Acinetobacter baumannii, CDC0033, read-out: MIC, A. baumannii CDC-0033
P. aeruginosa CDC-0090 = assay: microbe, parasite or virus in culture; type: cell-based; conditions: Pseudomonas aeruginosa, CDC0090, read-out: Minimum inhibitory concentration, P. aeruginosa CDC-0090
[4] = target: T3, PBP1a from Acinetobacter baumannii (ATCC 19606) (Acinetobacter baumannii, UniProt A0ABX6CK30); assay: Bocillin-FL fluorescence polarization competition binding, A. baumannii PBP1a; conditions: fluorescence polarization competition binding assay using Bocillin-FL; read-out: A. baumannii PBP1a Potency
T3 sequence (A0ABX6CK30 1-851): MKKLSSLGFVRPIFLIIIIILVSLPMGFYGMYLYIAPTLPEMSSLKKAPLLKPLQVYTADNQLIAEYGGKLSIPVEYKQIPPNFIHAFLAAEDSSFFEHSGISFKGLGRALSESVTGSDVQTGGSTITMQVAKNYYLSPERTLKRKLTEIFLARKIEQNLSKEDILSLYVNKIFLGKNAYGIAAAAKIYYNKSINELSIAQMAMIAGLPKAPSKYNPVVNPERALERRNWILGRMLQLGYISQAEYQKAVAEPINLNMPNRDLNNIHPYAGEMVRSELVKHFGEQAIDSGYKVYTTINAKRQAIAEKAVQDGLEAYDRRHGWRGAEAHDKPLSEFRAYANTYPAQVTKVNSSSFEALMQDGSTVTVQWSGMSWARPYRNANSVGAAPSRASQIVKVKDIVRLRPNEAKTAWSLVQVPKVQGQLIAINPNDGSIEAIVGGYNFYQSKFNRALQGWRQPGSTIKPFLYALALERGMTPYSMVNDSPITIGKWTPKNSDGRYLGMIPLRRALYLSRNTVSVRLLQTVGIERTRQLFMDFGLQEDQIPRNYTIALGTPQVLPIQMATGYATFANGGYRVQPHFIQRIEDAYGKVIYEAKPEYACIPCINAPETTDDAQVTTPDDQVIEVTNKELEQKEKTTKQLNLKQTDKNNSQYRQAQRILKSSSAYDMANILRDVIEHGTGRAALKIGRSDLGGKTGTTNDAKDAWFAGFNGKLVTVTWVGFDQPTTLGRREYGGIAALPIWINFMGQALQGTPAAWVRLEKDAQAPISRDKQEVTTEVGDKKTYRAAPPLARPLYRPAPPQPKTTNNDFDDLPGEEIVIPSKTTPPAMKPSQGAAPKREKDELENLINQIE
Summary of the method: as §1

[5] = ATCC49226, read-out: Minimum Inhibitory Concentration (MIC), N. gonorrhoeae ATCC 49226
[6] = read-out: Minimum Inhibitory Concentration (MIC), N. gonorrhoeae WHO L
[7] = ATCC49226, read-out: Minimum Inhibitory Concentration, ATCC 49226
[8] = read-out: Minimum Inhibitory Concentration, WHO L

O=C(NCCN1CCN(C(=O)NC(C(=O)N[C@H]2Cc3ccc(F)c(C(=O)O)c3OB2O)c2cc(F)c(O)c(O)c2Cl)C1=O)c1ccncc1 (stereo partly drawn) [Example 245, (3R)-3-(2-(2-chloro-5-fluoro-3,4-dihydroxyphenyl)-2-(3-(2-(isonicotinamido)ethyl)-2-oxoimidazolidine-1-carboxamido)acetamido)-7-fluoro-2-hydroxy-3,4-dihydro-2H-benzo[e][1,2]oxaborinine-8-carboxylic acid]
MIC [1, 5]: 16 to 32 µg/mL (≈ 22.8 to 45.5 µM)
MIC (A. baumannii ATCC 17978): < 1 µg/mL
EC50 [2]: 10 to 50 µM
IC50 [3]: < 10 µM
MIC (N. gonorrhoeae WHO L; [6]): > 64 µg/mL
MIC (A. baumannii CDC-0033): 8 to 16 µg/mL (≈ 11.4 to 22.8 µM)
MIC (P. aeruginosa CDC-0090): < 1 µg/mL
IC50 [4]: > 250 µM

O=C(CN1CCN(C(=O)N[C@@H](C(=O)N[C@H]2Cc3ccc(F)c(C(=O)O)c3OB2O)c2cc(F)c(O)c(O)c2Cl)C(=O)C1=O)NCc1nccs1 [Example 241, (R)-3-((R)-2-(2-chloro-5-fluoro-3,4-dihydroxyphenyl)-2-(2,3-dioxo-4-(2-oxo-2-((thiazol-2-ylmethyl)amino)ethyl)piperazine-1-carboxamido)acetamido)-7-fluoro-2-hydroxy-3,4-dihydro-2H-benzo[e][1,2]oxaborinine-8-carboxylic acid]
MIC [1, 5]: 4 to 8 µg/mL (≈ 5.43 to 10.9 µM)
MIC (A. baumannii ATCC 17978): < 1 µg/mL
EC50 [2]: < 10 µM
IC50 [3]: < 10 µM
MIC (N. gonorrhoeae WHO L; [6]): > 64 µg/mL
MIC (A. baumannii CDC-0033): 8 to 16 µg/mL (≈ 10.9 to 21.7 µM)
MIC (P. aeruginosa CDC-0090): 2 to 4 µg/mL (≈ 2.71 to 5.43 µM)
IC50 [4]: > 250 µM

O=C(NCCS(=O)(=O)N1CCN(C(=O)N[C@@H](C(=O)N[C@H]2Cc3ccc(F)c(C(=O)O)c3OB2O)c2cc(F)c(O)c(O)c2Cl)C1=O)c1nccs1 [Example 264, (R)-3-((R)-2-(2-chloro-5-fluoro-3,4-dihydroxyphenyl)-2-(2-oxo-3-((2-(thiazole-2-carboxamido)ethyl)sulfonyl)imidazolidine-1-carboxamido)acetamido)-7-fluoro-2-hydroxy-3,4-dihydro-2H-benzo[e][1,2]oxaborinine-8-carboxylic acid]
MIC [1, 7]: 16 to 32 µg/mL (≈ 20.7 to 41.4 µM)
MIC (A. baumannii ATCC 17978): < 1 µg/mL
EC50 [2]: < 10 µM
IC50 [3]: < 10 µM
MIC (N. gonorrhoeae WHO L; [8]): > 64 µg/mL
MIC (A. baumannii CDC-0033): < 1 µg/mL
MIC (P. aeruginosa CDC-0090): < 1 µg/mL
IC50 [4]: > 250 µM

O=C(NCCCN1CCN(C(=O)NC(C(=O)N[C@H]2Cc3ccc(F)c(C(=O)O)c3OB2O)c2cc(F)c(O)c(O)c2Cl)C(=O)C1=O)Nc1ccc(O)cc1 (stereo partly drawn) [Example 227, (3R)-3-(2-(2-chloro-5-fluoro-3,4-dihydroxyphenyl)-2-(4-(3-(3-(4-hydroxyphenyl)ureido)propyl)-2,3-dioxopiperazine-1-carboxamido)acetamido)-7-fluoro-2-hydroxy-3,4-dihydro-2H-benzo[e][1,2]oxaborinine-8-carboxylic acid]
MIC [1, 5]: 16 to 32 µg/mL (≈ 20.6 to 41.3 µM)
MIC (A. baumannii ATCC 17978): < 1 µg/mL
EC50 [2]: 10 to 50 µM
IC50 [3]: < 10 µM
MIC (N. gonorrhoeae WHO L; [6]): > 64 µg/mL
MIC (A. baumannii CDC-0033): 2 to 4 µg/mL (≈ 2.58 to 5.16 µM)
MIC (P. aeruginosa CDC-0090): 2 to 4 µg/mL (≈ 2.58 to 5.16 µM)
IC50 [4]: > 250 µM

O=C(NCCS(=O)(=O)N1CCN(C(=O)N[C@@H](C(=O)N[C@H]2Cc3ccc(F)c(C(=O)O)c3OB2O)c2cc(F)c(O)c(O)c2Cl)C1=O)Nc1cccnc1 [Example 267, (R)-3-((R)-2-(2-chloro-5-fluoro-3,4-dihydroxyphenyl)-2-(2-oxo-3-((2-(3-(pyridin-3-yl)ureido)ethyl)sulfonyl)imidazolidine-1-carboxamido)acetamido)-7-fluoro-2-hydroxy-3,4-dihydro-2H-benzo[e][1,2]oxaborinine-8-carboxylic acid]
MIC [1, 7]: 16 to 32 µg/mL (≈ 20.5 to 40.9 µM)
MIC (A. baumannii ATCC 17978): < 1 µg/mL
EC50 [2]: < 10 µM
IC50 [3]: < 10 µM
MIC (N. gonorrhoeae WHO L; [8]): > 64 µg/mL
MIC (A. baumannii CDC-0033): 8 to 16 µg/mL (≈ 10.2 to 20.5 µM)
MIC (P. aeruginosa CDC-0090): 2 to 4 µg/mL (≈ 2.56 to 5.12 µM)
IC50 [4]: > 250 µM

O=C(NCCS(=O)(=O)N1CCN(C(=O)N[C@H](C(=O)N[C@H]2Cc3ccc(F)c(C(=O)O)c3OB2O)c2cc(F)c(O)c(O)c2Cl)C1=O)c1nccs1 [Example 263, (R)-3-((S)-2-(2-chloro-5-fluoro-3,4-dihydroxyphenyl)-2-(2-oxo-3-((2-(thiazole-2-carboxamido)ethyl)sulfonyl)imidazolidine-1-carboxamido)acetamido)-7-fluoro-2-hydroxy-3,4-dihydro-2H-benzo[e][1,2]oxaborinine-8-carboxylic acid]
MIC [1, 7]: > 64 µg/mL
MIC (A. baumannii ATCC 17978): < 1 µg/mL
EC50 [2]: > 250 µM
IC50 [3]: 10 to 50 µM
MIC (N. gonorrhoeae WHO L; [8]): > 64 µg/mL
MIC (A. baumannii CDC-0033): 32 to 64 µg/mL (≈ 41.4 to 82.8 µM)
MIC (P. aeruginosa CDC-0090): 32 to 64 µg/mL (≈ 41.4 to 82.8 µM)
IC50 [4]: > 250 µM

O=C(NCCCS(=O)(=O)N1CCN(C(=O)N[C@H](C(=O)N[C@H]2Cc3ccc(F)c(C(=O)O)c3OB2O)c2cc(F)c(O)c(O)c2Cl)C1=O)c1cccc(O)c1 [Example 270, (R)-3-((S)-2-(2-chloro-5-fluoro-3,4-dihydroxyphenyl)-2-(3-((3-(3-hydroxybenzamido)propyl)sulfonyl)-2-oxoimidazolidine-1-carboxamido)acetamido)-7-fluoro-2-hydroxy-3,4-dihydro-2H-benzo[e][1,2]oxaborinine-8-carboxylic acid]
MIC [1, 7]: > 64 µg/mL
MIC (A. baumannii ATCC 17978): < 1 µg/mL
EC50 [2]: 50 to 250 µM
IC50 [3]: < 10 µM
MIC (N. gonorrhoeae WHO L; [8]): > 64 µg/mL
MIC (A. baumannii CDC-0033): 32 to 64 µg/mL (≈ 40.2 to 80.4 µM)
MIC (P. aeruginosa CDC-0090): 32 to 64 µg/mL (≈ 40.2 to 80.4 µM)
IC50 [4]: > 250 µM

O=C(NCCCN1CCN(C(=O)NC(C(=O)N[C@H]2Cc3ccc(F)c(C(=O)O)c3OB2O)c2cc(F)c(O)c(O)c2Cl)C(=O)C1=O)c1ccncc1 (stereo partly drawn) [Example 205, (3R)-3-(2-(2-chloro-5-fluoro-3,4-dihydroxyphenyl)-2-(4-(3-(isonicotinamido)propyl)-2,3-dioxopiperazine-1-carboxamido)acetamido)-7-fluoro-2-hydroxy-3,4-dihydro-2H-benzo[e][1,2]oxaborinine-8-carboxylic acid]
MIC [1, 5]: 16 to 32 µg/mL (≈ 21.5 to 43 µM)
MIC (A. baumannii ATCC 17978): < 1 µg/mL
EC50 [2]: < 10 µM
IC50 [3]: < 10 µM
MIC (N. gonorrhoeae WHO L; [6]): > 64 µg/mL
MIC (A. baumannii CDC-0033): 2 to 4 µg/mL (≈ 2.69 to 5.37 µM)
MIC (P. aeruginosa CDC-0090): < 1 µg/mL
IC50 [4]: > 250 µM

O=C(NCCCS(=O)(=O)N1CCN(C(=O)NC(C(=O)N[C@H]2Cc3ccc(F)c(C(=O)O)c3OB2O)c2cc(F)c(O)c(O)c2Cl)C1=O)c1ccccc1 (stereo partly drawn) [Example 268, (3R)-3-(2-(3-((3-benzamidopropyl)sulfonyl)-2-oxoimidazolidine-1-carboxamido)-2-(2-chloro-5-fluoro-3,4-dihydroxyphenyl)acetamido)-7-fluoro-2-hydroxy-3,4-dihydro-2H-benzo[e][1,2]oxaborinine-8-carboxylic acid]
MIC [1, 7]: 16 to 32 µg/mL (≈ 20.5 to 41 µM)
MIC (A. baumannii ATCC 17978): < 1 µg/mL
EC50 [2]: < 10 µM
IC50 [3]: < 10 µM
MIC (N. gonorrhoeae WHO L; [8]): > 64 µg/mL
MIC (A. baumannii CDC-0033): 8 to 16 µg/mL (≈ 10.3 to 20.5 µM)
MIC (P. aeruginosa CDC-0090): 2 to 4 µg/mL (≈ 2.56 to 5.13 µM)
IC50 [4]: > 250 µM

O=C(NCCN1CCN(C(=O)N[C@@H](C(=O)N[C@H]2Cc3ccc(F)c(C(=O)O)c3OB2O)c2cc(F)c(O)c(O)c2Cl)C(=O)C1=O)Nc1ccncc1 [Example 221, (R)-3-((R)-2-(2-chloro-5-fluoro-3,4-dihydroxyphenyl)-2-(2,3-dioxo-4-(2-(3-(pyridin-4-yl)ureido)ethyl)piperazine-1-carboxamido)acetamido)-7-fluoro-2-hydroxy-3,4-dihydro-2H-benzo[e][1,2]oxaborinine-8-carboxylic acid]
MIC [1, 5]: 16 to 32 µg/mL (≈ 21.5 to 42.9 µM)
MIC (A. baumannii ATCC 17978): < 1 µg/mL
EC50 [2]: < 10 µM
IC50 [3]: < 10 µM
MIC (N. gonorrhoeae WHO L; [6]): > 64 µg/mL
MIC (A. baumannii CDC-0033): 2 to 4 µg/mL (≈ 2.68 to 5.36 µM)
MIC (P. aeruginosa CDC-0090): < 1 µg/mL
IC50 [4]: > 250 µM
